# Experimental data from patent US5183828A, “Polyhydroxybenzoic acid derivatives” (priority 1990, dated 1993).
# pIC50: −log10 of the molar value. Structures can show the parent of a compound that is named as a salt.
# Columns and labels:
# L1210 leukemia = assay: antitumor activity in L1210 leukemia (percent increase in survival time), Table 2; type: in vivo, mice; details: 8 days; for ILS at 200 mg/kg: 200 mg/kg ip daily; for ILS at 100 mg/kg: 100 mg/kg ip daily
# Protocol: Testing of the compounds of this invention against L-1210 lymphoid leukemia were carried out as follows: L-1210 leukemia was maintained by weekly passage of 10^5 L-1210 cells intraperitoneally into DBA/2 mice. Diluted ascitic fluid, 0.1 ml. (10^5 cells), was administered ip to female B6D2 F1 mice weighing about 20 g. Drugs were administered ip 24 hours after tumor transplantation and injections were continued daily for a total of eight days. A group of control mice receiving only the injection medium were maintained. Table 2 which follows gives the antitumor activity against L-1210 leukemia for certain compounds of this invention. In the table, column 1 gives the name of the compound, column 2 the dose in mg./kg., and column 3 the percent increase in survival time over controls at each dose level.
# [1] = free radical scavenging ability (destruction of diphenylpicrylhydrazyl), Table 7; details: 100 μM diphenylpicrylhydrazyl in acetone; test compound 25 μM, 2.5 μM (footnote)
# Excerpt: It is believed that the antineoplastic activity of the compounds of this invention is due in parts to their ability to scavenge free-radicals. Additionally, the compounds of this invention are cancer protective agents and this utility also may be a manifestation of their free-radical scavenging capability. Free-radical scavenging agents may also be useful in detoxifying mammals in whom an excess of free radicals is a cause and/or result of the toxicity. Other possible uses of free radical scavengers are to inhibit protaglandin transformation, leucotriene interconversion and lipogenesis, to act as inflammatory modulators and as food additive or preservatives to prevent lipid oxidation. The free radical scavenging ability of the compounds of the invention was determined by measuring the destruction of the stable free radical, diphenylpicrylhydrazyl, in the presence of the test compound in a manner similar to that reported by […] and Herzmann, Naturwiss, 47, 133-134 (1960). […] The test compound was added at a final concentration of 25 μM and the rate of reduction of absorpotion at […] was observed. Table 7 below gives the free radical scavenging abilities of the compounds of this invention expresses as the initial rate of decrease in optical density units/min.
# ribonucleotide reductase = ribonucleotide reductase inhibition (conversion of CDP to dCDP), Table 1; type: biochemical; details: enzyme partially purified from HeLa cells or Ehrlich ascites cells; 40 min, 30° C; read-out: ID50 (inhibitory dose which inhibits ribonucleotide reductase by 50%)
# Excerpt: Compounds represented by formula I above have the ability to inhibit ribonucleotide reductase, an enzyme involved in the reductive conversion of ribonucleotides to deoxyribonucleotides. This enzymatic reaction is a rate controlling step in the biosynthetic pathway leading to DNA and cell replication. In general, the ribonucleotide reductase level is closely correlated with cellular replication. […] In addition, the compounds have shown activity against P388 leukemia and B16 melanoma.
# The results of biological tests of compounds according to formula I are incorporated in a series of Tables which follow. Table 1 gives ribonucleotide reductase data for representative compounds of formula I. In the table, column 1 gives the substitution pattern in the benzene- ring, column 2, the (CHR")m group, column 3, the [drawing 5] group, and column 4, the ID50 (inhibitory dose in micromolar concentration which inhibits ribonucleotide reductase by 50%) in μmoles.
# In the above determination of ID50 's in Table 1, ribonucleotide reductase is partially purified from HeLa cells or Ehrlich ascites cells by a procedure similar to that set forth by Elford et al. J. Biol. Chem., 245, 5228 (1970). The activity of the enzyme was measured by a slightly modified assay procedure originally developed by Reichard et al. id, 236, 1150 (1969). This procedure measures the conversion of CDP to dCDP. The assay mixture (0.34 ml.) contains 3 μCi of [^3 H] CDP (specific activity […]), 3.3 μmole ATP, 5.9 μmoles magnesium chloride, 8.8 μmoles Hepes buffer at pH=7.5, 15 μmoles dithiothreitol and enzyme protein between 0.4 and 1.3 mg. Incubation was provided for forty minutes at 30° C. Ion exchange chromatography employing Dowex 50 (H^+) resin is used to separate the product from the substrate. The inhibitors were dissolved in water and a mixture of water and up to 1% ethanol or 2% dimethylsulfoxide, neither one of which inhibited the enzyme at these concentrations. Each inhibitor was tested at a minimum of three concentrations and the active compounds reassayed at least one additional time. ID50 's (μmolar) were estimate from graphs summarizing results for each compound.
# L1210 = assay: antileukemia activity of nitriles vs L1210, Table 8; type: in vivo
# Excerpt: Table 8 which follows gives anti-tumor data vs L-1210 and P-388 leukemia for these novel nitriles.
# [2] = tested on: superoxide (xanthine oxidase reaction or human leukocytes); assay: effect on superoxide generation in vitro; type: biochemical
# Protocol: The rate of production of superoxide from the xanthine oxidase reaction or from human leukocytes activated with phorbol myristate acetate was measured spectrophotometrically as the superoxide dismutase (SOD)-inhibitable portion of the reduction of ferricytochrome c or nitroblue tetrazolium (NBT). All assays were carried out at 37° C., pH 7.1. For the superoxide production by the xanthine oxidase reaction, a concentration of 0.04 U/ml of xanthine oxidase was used with 0.1 mM xanthine as substrate. Absorbances were measured in the presence of 30 U/ml of SOD and in its absence. The indicators were either ferricytochrome c or NBT in a concentration of 20 uM. The initial rate of reduction of NBT was monitored at 530 nm and that of cytochrome c at 550 nm. Extinction coefficients were 21.4×10 ^3 /M cm for cytochrome c and 17.9×10^3 /M cm for NBT. The initial rate of production of superoxide from leukocytes was measured using a concentration of 20 uM ferricytochrome c or NBT as described above in the presence and absence of 30 U/ml of SOD.
# [3] = Mus musculus, L1210, 192 h, 300 mg/kg ip daily
molecule,measurement,setting,value
"CCOC(=N)c1ccc(O)c(O)c1 [ethyl 3,4-dihydroxybenzamidate-HCl, ethyl 3,4-dihydroxybenzamidate hydrochloride]",% Increase in Survival Time,L1210 leukemia; 218 mg/kg ip daily,toxic
same,% Increase in Survival Time,L1210 leukemia; 327 mg/kg ip daily,toxic
same,% Increase in Survival Time,L1210 leukemia; 435 mg/kg ip daily,toxic
same,initial rate of decrease in optical density (518 nm),[1],0.706 units/min.
"Cl.NC(=NO)c1cccc(O)c1O [2,3-dihydroxybenzamidoxime-HCl]",% Increase in Survival Time,L1210 leukemia; 300 mg/kg ip daily,toxic
N=C(N)c1cc(O)c(O)c(O)c1 [drawing 14],pIC50,ribonucleotide reductase,4.60
ON=C(NO)c1ccc(O)c(O)c1 [drawing 11],pIC50,ribonucleotide reductase,4.40
N#Cc1c(O)c(O)c(O)c(O)c1O [pentahydroxybenzonitrile],% Increase in Survival Time,L1210; 34.3 mg/kg,14.2%
same,% Increase in Survival Time,L1210; 51.5 mg/kg,0%
same,% Increase in Survival Time,L1210; 77.2 mg/kg,Toxic
same,% Increase in Survival Time,L1210; 116.0 mg/kg,Toxic
"3,4,5-TRIHYDROXYBENZAMIDATE",Cytochrome C Reduction,[2]; 10 uM compound,4.89 nmol
same,NBT Reduction,[2]; 10 uM compound,7.60 nmol
same,Cytochrome C Reduction,[2]; 20 uM compound,3.21 nmol
same,NBT Reduction,[2]; 20 uM compound,6.10 nmol
same,Cytochrome C Reduction,[2]; 50 uM compound,2.22 nmol
same,NBT Reduction,[2]; 50 uM compound,3.67 nmol
same,Cytochrome C Reduction,[2]; 100 uM compound,1.91 nmol
same,NBT Reduction,[2]; 100 uM compound,1.78 nmol
same,NBT Reduction,[2]; 200 uM compound,1.45 nmol
same,NBT Reduction,[2]; 500 uM compound,1.23 nmol
"NC(=NO)C(O)c1ccc(O)c(O)c1.O (stereo not shown) [3,4-dihydroxymandelamidoxime, 3,4-dihydroxymandelamidoxime monohydrate]",ILS at 435 mg/kg,"L1210 leukemia; Mus musculus, L1210, 192 h, 435 mg/kg ip daily",45.2%
same,ILS at 606 mg/kg,"L1210 leukemia; Mus musculus, L1210, 192 h, 606 mg/kg ip daily",45.2%
same,initial rate of decrease in optical density (518 nm),[1],0.383 units/min.
"N#Cc1ccc(O)c(O)c1O [2,3,4-trihydroxybenzonitrile]",% Increase in Survival Time,L1210; 50 mg/kg,11.0%
same,% Increase in Survival Time,L1210; 100 mg/kg,26.0%
same,% Increase in Survival Time,L1210; 155 mg/kg,12.1%
same,% Increase in Survival Time,L1210; 259 mg/kg,Toxic
same,% Increase in Survival Time,L1210; 327 mg/kg,Toxic
CCOC(=N)c1ccc(O)c(O)c1 [drawing 9],pIC50,ribonucleotide reductase,4.92
"ON=C(NO)c1ccc(O)c(O)c1 [3,4-dihydroxybenzohydroxyamidoxime-HCl, 3,4-Dihydroxybenzohydroxyamidoxime hydrochloride]",ILS at 155 mg/kg,"L1210 leukemia; Mus musculus, L1210, 192 h, 155 mg/kg ip daily",39%
same,ILS at 200 mg/kg,"L1210 leukemia; Mus musculus, L1210, 192 h",47.8%
same,ILS at 300 mg/kg,L1210 leukemia; [3],41.3%
N=C(N)c1ccc(O)c(O)c1 [drawing 10],pIC50,ribonucleotide reductase,4.70
NC(=NO)c1cccc(O)c1O,pIC50,ribonucleotide reductase,4.74
"N#Cc1cc(O)c(O)c(O)c1O [2,3,4,5-tetrahydroxybenzonitrile]",% Increase in Survival Time,L1210; 163 mg/kg,48.4%
same,% Increase in Survival Time,L1210; 230 mg/kg,Toxic
"N#Cc1ccc(O)c(O)c1 [3,4-dihydroxybenzonitrile]",% Increase in Survival Time,L1210; 47.6 mg/kg,4.7%
same,% Increase in Survival Time,L1210; 95.2 mg/kg,15.6%
same,% Increase in Survival Time,L1210; 196 mg/kg,Toxic
NC(=NO)c1ccc(O)c(O)c1 [drawing 8],pIC50,ribonucleotide reductase,5.10
NC(=NO)c1cc(O)c(O)c(O)c1 [drawing 12],pIC50,ribonucleotide reductase,5.30
ON=C(NO)c1cc(O)c(O)c(O)c1 [drawing 16],pIC50,ribonucleotide reductase,4.60
NC(=NO)c1ccc(O)c(O)c1O [drawing 17],pIC50,ribonucleotide reductase,5.15
"Cl.N=C(N)c1ccc(O)c(O)c1 [3,4-dihydroxybenzamidine-HCl]",ILS at 52 mg/kg,"L1210 leukemia; Mus musculus, L1210, 192 h, 52 mg/kg ip daily",26.8%
same,ILS at 100 mg/kg,"L1210 leukemia; Mus musculus, L1210, 192 h",58.3%
same,ILS at 104 mg/kg,"L1210 leukemia; Mus musculus, L1210, 192 h, 104 mg/kg ip daily",34.1%
same,ILS at 200 mg/kg,"L1210 leukemia; Mus musculus, L1210, 192 h",41.7%
same,ILS at 300 mg/kg,L1210 leukemia; [3],47.2%
same,ILS at 400 mg/kg,"L1210 leukemia; Mus musculus, L1210, 192 h, 400 mg/kg ip daily",47.8%
same,ILS at 603 mg/kg,"L1210 leukemia; Mus musculus, L1210, 192 h, 603 mg/kg ip daily",83%
same,initial rate of decrease in optical density (518 nm),[1],1.721 units/min.
"ON=C(NO)c1cc(O)c(O)c(O)c1 [3,4,5-trihydroxybenzohydroxyamidoxime-HCl]",ILS at 100 mg/kg,"L1210 leukemia; Mus musculus, L1210, 192 h",47.2%
same,ILS at 200 mg/kg,"L1210 leukemia; Mus musculus, L1210, 192 h",55.6%
same,ILS at 300 mg/kg,L1210 leukemia; [3],63.9%
same,initial rate of decrease in optical density (518 nm),[1],0.882 units/min.
"NC(=NO)c1ccc(O)c(O)c1O [2,3,4-trihydroxybenzamidoxime-HCl, 2,3,4-trihydroxybenzamidoxime]",% Increase in Survival Time,L1210 leukemia; 300 mg/kg ip daily,toxic
same,ILS at 100 mg/kg,"L1210 leukemia; Mus musculus, L1210, 192 h",38.9%
same,ILS at 200 mg/kg,"L1210 leukemia; Mus musculus, L1210, 192 h",36.1%
same,ILS at 218 mg/kg,"L1210 leukemia; Mus musculus, L1210, 192 h, 218 mg/kg ip daily",67.7%
CCOC(=N)c1cc(O)c(O)c(O)c1 [drawing 13],pIC50,ribonucleotide reductase,4.82
